The source of these data is patent EP0912518B1, “SUBSTITUTED PYRIDINES AS SELECTIVE CYCLOOXYGENASE-2 INHIBITORS” (Merck Frosst Canada & Co., priority 1996, dated 1998).

For one experiment, the system named is Rat Paw Edema. As to the kind of experiment: Rat paw edema assay (carrageenan). In kind it is in vivo. The following applies: male Sprague-Dawley rats, po 1 hr before carrageenan, paw volume 3 hr later; for ED50: Rattus norvegicus. The procedure: Male Sprague-Dawley rats (150-200 g) are fasted overnight and are given, po, either vehicle (1% methocel or 5% Tween 80) or a test compound. One hr later, a line is drawn using a permanent marker at the level above the ankle in one hind paw to define the area of the paw to be monitored. The paw volume (V0) is measured using a plethysmometer (Ugo-Basile, Italy) based on the principle of water displacement. The animals are then injected subplantarly with 50 µl of 1% carrageenan solution in saline (FMC Corp, Maine) into the paw using an insulin syringe with a 25-gauge needle (i.e. 500 µg carrageenan per paw). Three hr later, the paw volume (V3) is measured and the increases in paw volume (V3 - VO) are calculated. The animals are sacrificed by CO2 asphyxiation and the absence or presence of stomach lesions scored. Data is compared with the vehicle-control values and percent inhibition calculated. All treatment groups are coded to eliminate observer bias.

The next experiment addresses T1, COX-1 (Homo sapiens, UniProt P23219).
T1 construct: endogenous in cells; host or cells: U937 (human) cells; 100,000 x g microsomal fraction
As to the kind of experiment: Assay of COX-1 activity from U937 cell microsomes. The format is biochemical. Particulars: U937 cells, PGE2 synthesis in presence of AA. The procedure:
Compounds are tested as inhibitors of cyclooxygenase activity in whole cell cyclooxygenase assays. […] Cells used for these assays are human osteosarcoma 143 cells (which specifically express COX-2) and human U-937 cells (which specifically express COX-1). […] U 937 cells are pelleted by centrifugation at 500 x g for 5 min and washed once with phosphate-buffered saline and repelleted. Cells are resuspended in homogenization buffer consisting of 0.1 M Tris-HCl, pH 7.4, 10 mM EDTA, 2 µg/ml leupeptin, 2 µg/ml soybean trypsin inhibitor, 2 µg/ml aprotinin and 1 mM phenyl methyl sulfonyl fluoride. […] Assays are performed in duplicate in a final volume of 250 µl. Initially, 5 µl of DMSO vehicle or drug in DMSO are added to 20 µl of 0.1 M Tris-HCl buffer, pH 7.4 containing 10 mM EDTA in wells of a 96-deepwell polypropylene titre plate. 200 µl of the microsomal preparation are then added and pre-incubated for 15 min at room temperature before addition of 25 µl of […] arachidonic acid in […] Tris-HCl and 10 mM EDTA, pH 7.4. Samples are incubated for 40 min at room temperature and the reaction is stopped by the addition of 25 µl of 1 N HCl. Samples are neutralized with 25 µl of 1 N NaOH prior to quantitation of PGE2 content by radioimmunoassay (Dupont-NEN or Amersham assay kits). […]

A further experiment addresses T2, COX-2 (Homo sapiens, UniProt P35354).
T2 sequence (P35354 18-604): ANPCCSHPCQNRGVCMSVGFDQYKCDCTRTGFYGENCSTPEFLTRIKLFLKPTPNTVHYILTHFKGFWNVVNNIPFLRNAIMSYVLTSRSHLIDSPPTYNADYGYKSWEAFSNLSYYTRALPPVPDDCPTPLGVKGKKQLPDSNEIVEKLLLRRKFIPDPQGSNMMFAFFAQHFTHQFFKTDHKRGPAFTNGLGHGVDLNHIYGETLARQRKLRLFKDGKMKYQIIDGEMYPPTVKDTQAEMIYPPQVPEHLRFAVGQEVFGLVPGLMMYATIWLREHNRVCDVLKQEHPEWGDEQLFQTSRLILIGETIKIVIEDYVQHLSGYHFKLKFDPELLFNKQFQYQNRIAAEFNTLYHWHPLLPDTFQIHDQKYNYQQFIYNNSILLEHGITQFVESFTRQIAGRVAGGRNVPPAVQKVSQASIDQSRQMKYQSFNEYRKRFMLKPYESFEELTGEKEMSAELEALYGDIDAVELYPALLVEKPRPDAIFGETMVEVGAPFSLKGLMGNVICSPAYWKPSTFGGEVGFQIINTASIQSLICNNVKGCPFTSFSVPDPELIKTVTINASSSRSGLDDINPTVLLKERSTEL
As to the kind of experiment: Human whole blood assay, COX-2 (LPS-induced PGE2 production). Particulars: Cox-1 U937 IC50 divided by Cox-2 Whole Blood IC50. In kind it is cell-based. An excerpt:
As well, platelets in whole blood contain a large amount of the COX-1 enzyme. Immediately following blood clotting, platelets are activated through a thrombin-mediated mechanism. […] Thus, the effect of test compounds on TxB2 levels following blood clotting can be examined and used as an index for COX-1 activity. Therefore, the degree of selectivity by the test compound can be determined by measuring the levels of PGE2 after LPS induction (COX-2) and TxB2 following blood clotting (COX-1) in the same assay. Fresh blood is collected in heparinized tubes by venipuncture from both male and female volunteers. The subjects have no apparent inflammatory conditions and have not taken any NSAIDs for at least 7 days prior to blood collection. […] At the end of the incubation, the blood is centrifuged at 12,000 x g for 5 minutes to obtain plasma. A 100µL aliquot of plasma is mixed with 400µL of methanol for protein precipitation. The supernatant is obtained and is assayed for PGE2 using a radioimmunoassay kit (Amersham, RPA#530) after conversion of PGE2 to its methyl oximate derivative according to the manufacturer's procedure.

T1 sequence (P23219 24-599): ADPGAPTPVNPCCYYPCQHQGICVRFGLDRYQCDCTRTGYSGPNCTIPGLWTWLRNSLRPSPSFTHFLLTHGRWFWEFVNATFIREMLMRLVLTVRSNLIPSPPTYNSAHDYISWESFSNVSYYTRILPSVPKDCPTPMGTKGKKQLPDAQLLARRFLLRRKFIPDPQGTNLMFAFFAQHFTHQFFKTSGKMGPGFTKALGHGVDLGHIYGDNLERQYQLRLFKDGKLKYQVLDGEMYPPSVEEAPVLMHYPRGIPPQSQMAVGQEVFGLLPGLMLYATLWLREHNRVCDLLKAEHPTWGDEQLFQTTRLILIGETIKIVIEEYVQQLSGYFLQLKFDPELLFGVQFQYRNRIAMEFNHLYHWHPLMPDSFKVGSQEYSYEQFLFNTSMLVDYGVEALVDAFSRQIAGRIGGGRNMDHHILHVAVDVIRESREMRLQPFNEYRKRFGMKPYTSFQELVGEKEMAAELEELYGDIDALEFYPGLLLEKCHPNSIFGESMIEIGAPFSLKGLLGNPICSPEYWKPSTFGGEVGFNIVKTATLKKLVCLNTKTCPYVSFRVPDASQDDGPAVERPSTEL

For the compound `CS(=O)(=O)c1ccc(-c2cccnc2-c2ccccc2)cc1` [Aa, reference compound], the “Rat Paw Edema (ED50, mg/kg)” value with Rat Paw Edema is more than 10 mg/kg. The IC50 at COX-1 was more than 10 µM.
`CS(=O)(=O)c1ccc(-c2cccnc2-c2ccc(F)cc2)cc1` [Ab, reference compound]: the “Selectivity Ratio” value at COX-2 is reported as 0.45.
Take `CS(=O)(=O)c1ccc(-c2cc(C(F)(F)F)cnc2-c2cccnc2)cc1` [Example 7, 3-(4-Methylsulfonyl)phenyl-2-(3-pyridinyl)-5-trifluoromethylpyridine]: it took a dose of 1.7 mg/kg to reach the 50% effect level in the experiment on Rat Paw Edema (ED50).
`Cc1ccc(-c2ncc(Cl)cc2-c2ccc(S(C)(=O)=O)cc2)cn1` [Example 23, 5-Chloro-3-(4-methylsulfonyl)phenyl-2-(2-methyl-5-pyridinyl)pyridine]: the ED50 with Rat Paw Edema stood at 0.6 mg/kg.
In the case of `CS(=O)(=O)c1ccc(-c2cc(Br)cnc2-c2cccnc2)cc1` [Example 32], at COX-2, the “Selectivity Ratio” value is more than 8.3.
